One assay relates to HeLa S-3 cells. Nature of the assay: HeLa GI50 determination (SRB growth inhibition). The format is cell-based, human. As to conditions: Homo sapiens, HeLa S3, 48 h. As for the experimental part:
Growth inhibition (GI50) values were measured on the human cervical carcinoma cell line, HeLa S-3, which were selected for growth on plastic. The HeLa cell assay was based on the description of Skehan et al., J. Natl. Cancer Inst., 82:1107-12 (1990), which is hereby incorporated by reference in its entirety. HeLa cells were plated at 2×10^4 cells/well in 96 well plates. One day later, a control plate was fixed by the addition of TCA to 5%. After five rinses with tap water, the plate was air-dried and stored at 4° C. Test compounds were added to the remaining plates at 10-fold dilutions. Two days later, all plates were fixed as described above. Cells were then stained by the addition of 100 μL per well of 0.4% sulforhodamine B (SRB) in 1% acetic acid for 30 min at 4° C. Wells were then quickly rinsed 5× with 1% acetic acid and allowed to air dry. The SRB was then solubilized by the addition of 100 μL per well of unbuffered 10 mM Tris base. Dye was quantified by measuring absorbance at 490 nm on a Molecular Devices microplate reader. Growth inhibition was calculated according to the following equation: GI=100×(T−T0)/(C−T0), where the optical density (OD) of the test well after 2 days of treatment was T, the OD of the wells in the control plate on day 0 was T0 and C was the OD of untreated wells. Plots of percent growth inhibition versus inhibitor concentration were used to determine the GI50.

Another assay concerns MCF-7 cells. The experiment in a line: MCF-7 GI50 determination (crystal violet growth inhibition). The class given is cell-based, human. As to conditions: Homo sapiens, MCF7, 96 h. As to the method: Growth inhibition (GI50) values were measured on the human breast carcinoma line, MCF-7. MCF-7 cells were plated at 2×10^4 cells/well in 96 well plates and grown for 24 hours in drug free media. On day 2, test compounds were added to the plates at 10-fold dilutions. Four days later, cells were fixed by the addition of glutaraldehyde to 0.75%. After 30 min, the fixed cells were extensively rinsed with distilled water and dried at room temperature for one hour. The cells were then stained with a 0.2% crystal violet solution for one hour at room temperature. Unbound stain was removed by ten rinses with tap water and plates were allowed to air dry for 30 min. The crystal violet was then solubilized by the addition of 10% acetic acid for 15 min and quantified by measuring absorbance at 570 nm on a Molecular Devices microplate reader. Growth inhibition was calculated according to the following equation: GI=[…], where the optical density (OD) of the test well after 4 days of treatment was T, the OD of the wells in the control plate on day 0 was T0. Plots of percent growth inhibition versus inhibitor concentration were used to determine the GI50.

Where [1] appears, read: read-out: MCF-7 Cells GI50 (nM).
[2] abbreviates: HeLa S-3 cells, 2 days of treatment, sulforhodamine B, read-out: HeLa Cells GI50.
The mark [3] stands for this setting: MCF-7 cells, 4 days of treatment, crystal violet, read-out: MCF-7 Cells GI50.

Like-named read-outs stand apart in the source and are kept apart here.

As usually defined, the GI50 is the concentration that inhibits growth by half. For the compound `CC[C@]1(O)C[C@H]2CN(CCc3c([nH]c4ccc(N(C)c5ccccc5)cc34)[C@@](C(=O)OC)(c3cc4c(cc3OC)N(C)[C@H]3[C@@](O)(C(=O)OC)[C@H](OC(C)=O)[C@]5(CC)C=CCN6CC[C@]43[C@@H]65)C2)C1` [Example 79, 12′-(N-methyl-N-phenylamino) vinblastine], the concentration for 50% growth inhibition (GI50) with HeLa S-3 cells (read-out: HeLa Cells GI50 (nM)) was 700 nM; with MCF-7 cells (setting [1]) it was over 1000 nM.

As for `CC[C@]1(O)C[C@H]2CN(CCc3c([nH]c4ccc(Nc5ccc(OC)cc5)cc34)[C@@](C(=O)OC)(c3cc4c(cc3OC)N(C)[C@H]3[C@@](O)(C(=O)OC)[C@H](OC(C)=O)[C@]5(CC)C=CCN6CC[C@]43[C@@H]65)C2)C1` [Example 83, 12′-(4-methoxyphenylamino)vinblastine], the GI50 with HeLa S-3 cells (read-out: HeLa Cells GI50 (nM)) stood at 300 nM; with MCF-7 cells (setting [1]), 500 nM.

Take `CCC1=C[C@H]2CN(CCc3c([nH]c4ccc(I)cc34)[C@@](C(=O)OC)(c3cc4c(cc3OC)N(C)[C@H]3[C@@](O)(C(=O)OC)[C@H](OC(C)=O)[C@]5(CC)C=CCN6CC[C@]43[C@@H]65)C2)C1` [Example 98, 12′-iodoanhydro vinblastine]: the GI50 in the assay with HeLa S-3 cells (read-out: HeLa Cells GI50 (nM)) was 50 nM; with MCF-7 cells (setting [1]), 305 nM.

Turning to `CC[C@]1(O)C[C@H]2CN(CCc3c([nH]c4ccc(SCc5ccccc5F)cc34)[C@@](C(=O)OC)(c3cc4c(cc3OC)N(C=O)[C@H]3[C@@](O)(C(=O)OC)[C@H](OC(C)=O)[C@]5(CC)C=CCN6CC[C@]43[C@@H]65)C2)C1` [Example 38], the figures for the concentration for 50% growth inhibition (GI50) in the assay with HeLa S-3 cells (read-out: HeLa Cells GI50 (nM)) and with MCF-7 cells (setting [1]) were 100 nM and 200 nM, respectively.

For `CC[C@]1(O)C[C@H]2CN(CCc3c([nH]c4ccc(-c5ccccc5)cc34)[C@@](C(=O)OC)(c3cc4c(cc3OC)N(C=O)[C@H]3[C@@](O)(C(=O)OC)[C@H](OC(C)=O)[C@]5(CC)C=CCN6CC[C@]43[C@@H]65)C2)C1` [Example 5, 12′-phenylvincristine], the GI50 is 50 nM in the assay on HeLa S-3 cells (read-out: HeLa Cells GI50 (nM)) and 30 nM in the assay on MCF-7 cells (setting [1]).

Consider `CCc1ccc2[nH]c3c(c2c1)CCN1C[C@H](C[C@@](O)(CC)C1)C[C@]3(C(=O)OC)c1cc2c(cc1OC)N(C=O)[C@H]1[C@@](O)(C(=O)OC)[C@H](OC(C)=O)[C@]3(CC)C=CCN4CC[C@]21[C@@H]43` [Example 78, 12′-ethylvincristine], for which the results for the concentration for 50% growth inhibition (GI50) in the assay on HeLa S-3 cells (setting [2]) and in the assay with MCF-7 cells (setting [3]) were 5 nM and 10 nM, respectively.

In the case of `CC[C@]1(O)C[C@H]2CN(CCc3c([nH]c4ccc(SCCN(C)C)cc34)[C@@](C(=O)OC)(c3cc4c(cc3OC)N(C)[C@H]3[C@@](O)(C(=O)OC)[C@H](OC(C)=O)[C@]5(CC)C=CCN6CC[C@]43[C@@H]65)C2)C1` [Example 48, 12′-(2-(N,N-dimethylamino)ethylsulfanyl)vinblastine], the GI50 turned out to be 30 nM with HeLa S-3 cells (read-out: HeLa Cells GI50 (nM)) and 40 nM in the assay with MCF-7 cells (setting [1]).

Take `CC[C@]1(O)C[C@H]2CN(CCc3c([nH]c4ccc(C#N)cc34)[C@@](C(=O)OC)(c3cc4c(cc3OC)N(C=O)[C@H]3[C@@](O)(C(=O)OC)[C@H](OC(C)=O)[C@]5(CC)C=CCN6CC[C@]43[C@@H]65)C2)C1` [Example 66, 12′-cyanovincristine]: the concentration for 50% growth inhibition (GI50) in the assay on HeLa S-3 cells (setting [2]) was 10 nM; in the assay with MCF-7 cells (setting [3]) it was 4 nM.

As for `CC[C@]1(O)C[C@H]2CN(CCc3c([nH]c4ccc(-c5ccccc5)cc34)[C@@](C(=O)OC)(c3cc4c(cc3OC)N(C)[C@H]3[C@@](O)(C(=O)OC)[C@H](OC(C)=O)[C@]5(CC)C=CCN6CC[C@]43[C@@H]65)C2)C1` [Example 6, 12′-phenylvinblastine], the figures for the GI50 in the assay on HeLa S-3 cells (read-out: HeLa Cells GI50 (nM)) and with MCF-7 cells (setting [1]) were 400 nM and 300 nM, respectively.

For the compound `CC[C@]1(O)C[C@H]2CN(CCc3c([nH]c4ccc(/C=C/C(=O)OC(C)(C)C)cc34)[C@@](C(=O)OC)(c3cc4c(cc3OC)N(C)[C@H]3[C@@](O)(C(=O)OC)[C@H](OC(C)=O)[C@]5(CC)C=CCN6CC[C@]43[C@@H]65)C2)C1` [Example 27, 12′-(2-tert-butoxycarbonylvinyl) vinblastine], the results for the GI50 with HeLa S-3 cells (read-out: HeLa Cells GI50 (nM)) and with MCF-7 cells (setting [1]) were 200 nM and 300 nM, respectively.

As to `CCc1cc2[nH]c3c(c2cc1C)CCN1C[C@H](C[C@@](O)(CC)C1)C[C@]3(C(=O)OC)c1cc2c(cc1OC)N(C=O)[C@H]1[C@@](O)(C(=O)OC)[C@H](OC(C)=O)[C@]3(CC)C=CCN4CC[C@]21[C@@H]43` [Example 94, 13′-ethyl-12′-methyl vincristine], the GI50 in the assay on HeLa S-3 cells (read-out: HeLa Cells GI50 (nM)) was found to be 30 nM; with MCF-7 cells (setting [1]), 50 nM.

For the compound `C=Cc1ccc2[nH]c3c(c2c1)CCN1C[C@H](C[C@@](O)(CC)C1)C[C@]3(C(=O)OC)c1cc2c(cc1OC)N(C)[C@H]1[C@@](O)(C(=O)OC)[C@H](OC(C)=O)[C@]3(CC)C=CCN4CC[C@]21[C@@H]43` [Example 25, 12′-vinylvinblastine], the values for the 50% growth inhibitory concentration (GI50) in the assay with HeLa S-3 cells (setting [2]) and in the assay with MCF-7 cells (setting [3]) were 3 nM and 9 nM, respectively.

Turning to `CC[C@]1(O)C[C@H]2CN(CCc3c([nH]c4ccc(SC)cc34)[C@@](C(=O)OC)(c3cc4c(cc3OC)N(C)[C@H]3[C@@](O)(C(=O)OC)[C@H](OC(C)=O)[C@]5(CC)C=CCN6CC[C@]43[C@@H]65)C2)C1` [Example 43, 12′-(methylsulfanyl) vinblastine], the concentration for 50% growth inhibition (GI50) in the assay with HeLa S-3 cells (setting [2]) is 0.6 nM; with MCF-7 cells (setting [3]), 2 nM.

Turning to `CC[C@]1(O)C[C@H]2CN(CCc3c([nH]c4ccc(C#CCN(C)C)cc34)[C@@](C(=O)OC)(c3cc4c(cc3OC)N(C)[C@H]3[C@@](O)(C(=O)OC)[C@H](OC(C)=O)[C@]5(CC)C=CCN6CC[C@]43[C@@H]65)C2)C1` [Example 24, 12′-(N,N-dimethylaminopropynyl)vinblastine], the GI50 with HeLa S-3 cells (read-out: HeLa Cells GI50 (nM)) was found to be 300 nM; in the assay with MCF-7 cells (setting [1]) it was 400 nM.

Turning to `CC[C@]1(O)C[C@H]2CN(CCc3c([nH]c4ccc(-c5ccc(F)cc5)cc34)[C@@](C(=O)OC)(c3cc4c(cc3OC)N(C)[C@H]3[C@@](O)(C(=O)OC)[C@H](OC(C)=O)[C@]5(CC)C=CCN6CC[C@]43[C@@H]65)C2)C1` [Example 10, 12′-(4-fluorophenyl) vinblastine], the GI50 was 250 nM with HeLa S-3 cells (read-out: HeLa Cells GI50 (nM)) and 95 nM with MCF-7 cells (setting [1]).

Turning to `CC[C@]1(O)C[C@H]2CN(CCc3c([nH]c4ccc(C#C[Si](C)(C)C)cc34)[C@@](C(=O)OC)(c3cc4c(cc3OC)N(C)[C@H]3[C@@](O)(C(=O)OC)[C@H](OC(C)=O)[C@]5(CC)C=CCN6CC[C@]43[C@@H]65)C2)C1` [Example 16, 12′-(trimethylsilylethynyl)vinblastine], the results for the concentration for 50% growth inhibition (GI50) with HeLa S-3 cells (setting [2]) and in the assay on MCF-7 cells (setting [3]) were 300 nM and 40 nM, respectively.

Turning to `CC[C@]1(O)C[C@H]2CN(CCc3c([nH]c4ccc(SCCCCO)cc34)[C@@](C(=O)OC)(c3cc4c(cc3OC)N(C)[C@H]3[C@@](O)(C(=O)OC)[C@H](OC(C)=O)[C@]5(CC)C=CCN6CC[C@]43[C@@H]65)C2)C1` [Example 32, 12′-(4-hydroxybutylsulfanyl)vinblastine], the 50% growth inhibitory concentration (GI50) worked out at 35 nM with HeLa S-3 cells (read-out: HeLa Cells GI50 (nM)) and 30 nM in the assay with MCF-7 cells (setting [1]).

On to `CC[C@]1(O)C[C@H]2CN(CCc3c([nH]c4ccc(C(C)=O)cc34)[C@@](C(=O)OC)(c3cc4c(cc3OC)N(C)[C@H]3[C@@](O)(C(=O)OC)[C@H](OC(C)=O)[C@]5(CC)C=CCN6CC[C@]43[C@@H]65)C2)C1` [Example 70, 12′-acetylvinblastine], for which the results for the GI50 with HeLa S-3 cells (read-out: HeLa Cells GI50 (nM)) and with MCF-7 cells (setting [1]) were 200 nM and 100 nM, respectively.

`CC[C@]1(O)C[C@H]2CN(CCc3c([nH]c4ccc(C=O)cc34)[C@@](C(=O)OC)(c3cc4c(cc3OC)N(C=O)[C@H]3[C@@](O)(C(=O)OC)[C@H](OC(C)=O)[C@]5(CC)C=CCN6CC[C@]43[C@@H]65)C2)C1` [Example 62, 12′-formylvincristine]: the GI50 with HeLa S-3 cells (setting [2]) amounted to 10 nM; with MCF-7 cells (setting [3]) it was 30 nM.

For the origin of these results see US7745619B2, “Vinca derivatives” (priority 2003, dated 2010).
